From ChEMBL document CHEMBL5233242, “Dihydrofolate reductase inhibitors for use as antimicrobial agents” (Eur J Med Chem, 2020) come the findings set out here.

In brackets after ≈: the same amount, converted by molar mass. Several values for one entry are separate records, joined by “and”; a condition that tells them apart may be missing. Equal values may be shown once.

Data set [1] in a line: Inhibition of Staphylococcus aureus DHFR F98Y mutant.
Data set [2] concerns the target T1, Dihydrofolate reductase (Mycobacterium tuberculosis, UniProt P9WNX1).
T1 sequence (P9WNX1 whole entry): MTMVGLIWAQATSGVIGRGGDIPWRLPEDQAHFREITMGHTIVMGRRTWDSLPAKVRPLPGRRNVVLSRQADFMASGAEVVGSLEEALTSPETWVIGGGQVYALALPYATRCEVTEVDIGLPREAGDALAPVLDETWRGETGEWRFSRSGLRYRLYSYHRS
Description: Inhibition of Mycobacterium tuberculosis DHFR

For data set [3], the system named is Mycobacterium tuberculosis. The data set can be described thus: Antibacterial activity against Mycobacterium tuberculosis H37Rv incubated for 7 days by resazurin dye based broth microdilution assay. It is filed as functional. The conditions noted are these: 168 h, time 7 day. Background: Alamar Blue is a resazurin reagent that responds to reducing activity.
Data set [4] deals with Mycobacterium tuberculosis. Nature of the data set: Antibacterial activity against Mycobacterium tuberculosis H37Rv. The data set is classed as functional.
The test system of data set [5] is Mycobacterium tuberculosis. The data set can be described thus: Antibacterial activity against Mycobacterium tuberculosis Erdman. It is filed as functional.
The subject of data set [6] is Escherichia coli. Nature of the data set: Antibacterial activity against Escherichia coli ATCC 25922. It is filed as functional.
Data set [7] relates to Escherichia coli. The data set can be described thus: Antibacterial activity against Escherichia coli NR698. It is filed as functional.
A short description of data set [8]: Cytotoxicity against african green monkey Vero cells. The conditions noted are these: chlorocebus sabaeus. It is filed as toxicity, cell-based.
The test system of data set [9] is Staphylococcus aureus. The data set can be described thus: Antibacterial activity against Staphylococcus aureus ATCC 43300 harboring wild type DHFR. It is filed as functional.
Data set [10] deals with Staphylococcus aureus. Nature of the data set: Antibacterial activity against Staphylococcus aureus harboring DHFR F98Y mutant. The data set is classed as functional.
Data set [11] has as its target T2, Dihydrofolate reductase (Staphylococcus aureus, UniProt P0A017). Nature of the data set: Inhibition of wild type Staphylococcus aureus DHFR.
The target of data set [12] is T2, Dihydrofolate reductase. Nature of the data set: Inhibition of Staphylococcus aureus DHFR.
Data set [13] relates to Mycobacterium tuberculosis. Nature of the data set: Antibacterial activity against Mycobacterium tuberculosis H37Ra. It is filed as functional.
In data set [14] the test system is Staphylococcus aureus. Nature of the data set: Antibacterial activity against methicillin resistant Staphylococcus aureus CCARM3167. It is filed as functional.
Data set [15] concerns Staphylococcus aureus. The data set can be described thus: Antibacterial activity against Staphylococcus aureus RN4220 harboring wild type DHFR. The data set is classed as functional.
For data set [16], the system named is Staphylococcus aureus. Nature of the data set: Antibacterial activity against Staphylococcus aureus ATCC 29213 harboring wild type DHFR. The data set is classed as functional.
The nature of data set [17]: Inhibition of Pseudomonas aeruginosa DHFR.
For data set [18], the system named is Pseudomonas aeruginosa. The data set can be described thus: Antibacterial activity against Pseudomonas aeruginosa PA01. It is filed as functional.
Data set [19] concerns Pseudomonas aeruginosa. Nature of the data set: Synergistic antibacterial activity against Pseudomonas aeruginosa PA01 assessed as fractional inhibitory concentration index in presence of gallic acid. It is filed as functional.
Data set [20] concerns Pseudomonas aeruginosa. The data set can be described thus: Synergistic antibacterial activity against Pseudomonas aeruginosa PA01 assessed as fractional inhibitory concentration index in presence of quercetin. It is filed as functional.
The test system of data set [21] is Pseudomonas aeruginosa. Nature of the data set: Synergistic antibacterial activity against Pseudomonas aeruginosa PA01 assessed as fractional inhibitory concentration index in presence of protocatechuic acid. The data set is classed as functional.
The subject of data set [22] is Pseudomonas aeruginosa. Nature of the data set: Synergistic antibacterial activity against Pseudomonas aeruginosa PA01 assessed as fractional inhibitory concentration index in presence of myricetin. The data set is classed as functional.

T2 sequence (P0A017 whole entry): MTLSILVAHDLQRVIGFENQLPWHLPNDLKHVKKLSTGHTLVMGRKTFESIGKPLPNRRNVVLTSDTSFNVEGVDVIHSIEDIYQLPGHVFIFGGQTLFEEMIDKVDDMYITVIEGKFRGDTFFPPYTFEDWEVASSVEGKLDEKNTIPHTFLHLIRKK

Broadly, the IC50 is the point on the concentration scale where inhibition reaches its midpoint. For the molecule `CCC[C@H]1c2ccccc2C=NN1C(=O)/C=C/c1cc(Cc2cnc(N)nc2N)cc(OC)c1OC`, the midpoint of inhibition in [1], the IC50, lay at 0.0018 µM.

By MIC is commonly meant the lowest concentration found to suppress growth. Turning to `COc1ccc(-c2nc3ccccc3c(=O)[nH]2)cc1`, the midpoint of inhibition against Dihydrofolate reductase [2], the IC50, lay at 49.1 µM. In data set [3], the MIC was 125 µM and 31.5 µg/mL.

Regarding `O=c1[nH]c(=O)c2c(ncn2Cc2ccccc2)[nH]1`, the midpoint of inhibition at Dihydrofolate reductase [2], the IC50, lay at 38.6 µM. In data set [3], the MIC is 130 µM and 31.5 µg/mL.

As for `CCc1nc(N)nc(N)c1C#C[C@H](C)c1cc(OC)cc(-c2ccc(C(=O)O)cc2)c1`, the MIC in [4] and in data set [5] was below 0.072 µM throughout.

For the molecule `CCc1nc(N)nc(N)c1C#C[C@@H](C)c1cc(OC)cc(-c2ccc(C(=O)O)cc2)c1`, the MIC in the data set on Escherichia coli [6] turned out to be 24 µM (≈ 10 µg/mL); in the data set on Escherichia coli [7], 0.0075 µM (≈ 0.00312 µg/mL).

As for `CCc1nc(N)nc(N)c1C#CCc1cc(OC)cc(-c2ccc(C(=O)O)cc2)c1`, the MIC in data set [4] was determined as 0.311 µM (≈ 0.125 µg/mL); in [5] it was 1.24 µM (≈ 0.5 µg/mL).

In general, CC50 refers to the concentration that lowers cell viability or growth by half. Consider `Nc1nc(N)nc(-c2ccc(OCc3ccc(Cl)cc3)cc2)n1`, for which the lowest concentration to inhibit growth in data set [4] (MIC) was 1.76 µM (≈ 0.577 µg/mL). Moreover, the CC50 in data set [8] came to 464 µM.

Consider `CCCCc1nc(Cl)c(C2NC(=O)NC(C)=C2C(=O)Nc2ccc(F)cc2)[nH]1` (stereo not drawn), for which it took 0.96 µM (≈ 0.39 µg/mL) to inhibit growth in data set [4] (MIC). For the same molecule, on Dihydrofolate reductase [2], the IC50 was above 24.6 µM.

On to `CCc1nc(N)nc(N)c1C#C[C@H](C)c1cc(OC)cc(-c2ccncc2)c1`, for which the IC50 in [1] was determined as 0.51 µM; on Dihydrofolate reductase [11], 0.015 µM. The values for the MIC against Staphylococcus aureus [9] and in the data set with Staphylococcus aureus [10] were 0.874 µM (≈ 0.326 µg/mL) and 14 µM (≈ 5.22 µg/mL), respectively.

Regarding `Cc1ccc(CN2C(=O)/C(=C3\SC(=S)N(C(=O)O)C3=O)c3ccccc32)cc1`, the half-maximal inhibitory concentration (IC50) against Dihydrofolate reductase [12] stood at 0.46 µM.

In data set [4], `COc1cc(-c2nc(N)nc(N)n2)ccc1OCc1ccc(F)cc1` showed an MIC of 3.39 µM (≈ 1.16 µg/mL). For the same molecule, in [8], it took 360 µM to reach half-maximal cytotoxicity (CC50).

`Nc1nc(N)c(-c2ccc(C(=O)Nc3cccc(OC(F)(F)F)c3)cc2)c(OCc2cncs2)n1`: the MIC in data set [13] was 12.4 µM and 6.25 µg/mL.

In data set [4], `COc1ccc(-c2nc(N)nc(N)n2)cc1Oc1ccc(Cl)cc1` showed a minimum inhibitory concentration (MIC) of 4.92 µM (≈ 1.69 µg/mL). In addition, the CC50 in data set [8] is 335 µM.

In data set [4], `Nc1nc(N)c2c(ccc3c2ccn3Cc2ccc3ccccc3c2)n1` yielded an MIC95 of 3.12 µM (≈ 1.06 µg/mL). In addition, 0.00096 µM corresponded to half-maximal inhibition against Dihydrofolate reductase [2] (IC50).

As for `CC[C@@H]1CC[C@H]2C(CC)(CC)[C@H](O)CC[C@]2(CC)[C@@]12Cc1c(O)cc3c(c1O2)COC3=O`, the MIC against Staphylococcus aureus [14] and in the data set with Staphylococcus aureus [15] was 72.3 µM (≈ 32 µg/mL) each time. Besides, half-maximal inhibition on Dihydrofolate reductase [11] (IC50) required 41.5 µM.

As to `CCc1nc(N)nc(N)c1C#C[C@@H](C)c1cc(OC)cc(-c2ccncc2)c1`, the figures for the IC50 (in [1]; against Dihydrofolate reductase [11]) were 0.111 µM and 0.018 µM, respectively. Besides, the MIC in the data set on Staphylococcus aureus [9] came to 0.11 µM (≈ 0.0411 µg/mL); in the data set on Staphylococcus aureus [10], 1.75 µM (≈ 0.653 µg/mL).

As usually defined, the Ki is a dissociation constant, usually derived from enzyme kinetics or from competition with a known ligand. The molecule `CCCc1cc(N)cc(N)c1Cc1cc(/C=C/C(=O)N2N=Cc3ccccc3C2C=C(C)C)c(OC)c(OC)c1` (stereo not drawn) came in with an inhibition constant (Ki) on Dihydrofolate reductase [11] of 0.004 µM. This molecule had an MIC in the data set on Staphylococcus aureus [16] of 3.72 µM (≈ 2 µg/mL).

One may read the MIC99 as the lowest concentration that inhibits either 99% of growth or 99% of the strains tested, depending on the study. Consider `Nc1nc(N)c2cc(C(F)(F)F)ccc2n1`, for which, in [4], the MIC99 was 207 µM (≈ 47.2 µg/mL).

As for `O=C(O[C@@H]1Cc2c(O)cc(O)cc2O[C@@H]1c1cc(O)c(O)c(O)c1)c1cc(O)c(O)c(O)c1` [EPIGALOCATECHIN GALLATE], the MIC in data set [4] amounted to 4.25 µM (≈ 1.95 µg/mL). In addition, the IC50 at Dihydrofolate reductase [2] amounted to 10.9 µM.

In turn, `O=C(O)c1cc(O)c(O)c(O)c1` [GALLIC ACID] displayed an IC50 in data set [17] of 9620 µM.

In the data set with Pseudomonas aeruginosa [18], `O=c1c(O)c(-c2cc(O)c(O)c(O)c2)oc2cc(O)cc(O)c12` [MYRICETIN] showed an MIC of 1550 µM (≈ 493 µg/mL). In data set [17], this molecule came in with an IC50 of 520 µM.

`O=C(O)c1ccc(O)c(O)c1` [PROTOCATECHUIC ACID]: in data set [17], the IC50 is 10700 µM.

For the molecule `O=c1c(O)c(-c2ccc(O)c(O)c2)oc2cc(O)cc(O)c12` [QUERCETIN], in the data set on Pseudomonas aeruginosa [18], the MIC was found to be 1650 µM (≈ 499 µg/mL). Besides, the IC50 in data set [17] was found to be 595 µM.

`Cc1cc(NS(=O)(=O)c2ccc(N)cc2)no1` [SULFAMETHOXAZOLE] displayed an MIC with Pseudomonas aeruginosa [18] of 500 µM (≈ 127 µg/mL). The “fractional inhibitory concentration index (FICI)” value with Pseudomonas aeruginosa [19] is listed as 0.38; in the data set on Pseudomonas aeruginosa [20] it was 0.38; in the data set on Pseudomonas aeruginosa [21], 0.25; in the data set with Pseudomonas aeruginosa [22], 0.38. Also, the IC50 in [17] stood at 140 µM.

Molecule `COc1cc(Cc2cnc(N)nc2N)cc(OC)c1OC` [TRIMETHOPRIM] showed an MIC with Pseudomonas aeruginosa [18] of 110 µM (≈ 31.9 µg/mL). 88.7 µM corresponded to half-maximal inhibition in data set [17] (IC50).
